Measurements taken from ChEMBL document CHEMBL1649464, “Galleria mellonella as a model system to study Acinetobacter baumannii pathogenesis and therapeutics” (2009).
The source made the active and inactive calls. The calls are words filed in the database; no cut-off is given here.

How the values were obtained:
[1] = tested on: Acinetobacter baumannii; test: Antibacterial activity against Acinetobacter baumannii A9844 infected in Galleria mellonella caterpillar assessed as prolonged survival rate at 50 mg/kg administered as single dose; type: functional, organism-based; set-up: dose 50 mg/kg
[2] = tested on: Acinetobacter baumannii; test: Antibacterial activity against Acinetobacter baumannii A9844 infected in Galleria mellonella caterpillar assessed as prolonged survival rate at 6 mg/kg administered as single dose; type: functional, organism-based; set-up: dose 6 mg/kg
[3] = tested on: Acinetobacter baumannii; test: Antibacterial activity against Acinetobacter baumannii A9844 infected in Galleria mellonella caterpillar assessed as prolonged survival rate at 150 mg/kg administered as single dose; type: functional, organism-based; set-up: dose 150 mg/kg
[4] = tested on: Acinetobacter baumannii; test: Antibacterial activity against Acinetobacter baumannii A9844 infected in Galleria mellonella caterpillar assessed as prolonged survival rate at 60 mg/kg administered as single dose; type: functional, organism-based; set-up: dose 60 mg/kg
[5] = tested on: Acinetobacter baumannii; test: Antibacterial activity against carbapenem-resistant Acinetobacter baumannii A3587 infected in Galleria mellonella caterpillar assessed as prolonged survival rate at 60 mg/kg administered as single dose; type: functional

Compound: CN(C)[C@@H]1C(O)=C(C(N)=O)C(=O)[C@@]2(O)C(O)=C3C(=O)c4c(O)cccc4[C@@](C)(O)[C@H]3C[C@@H]12
- Activity [1]: inactive

Compound: GENTAMICIN
- Activity [2]: Active

Compound: CO/N=C(\C(=O)N[C@@H]1C(=O)N2C(C(=O)O)=C(COC(C)=O)CS[C@H]12)c1csc(N)n1
- Activity [3]: inactive

Compound: C[C@@H](O)[C@H]1C(=O)N2C(C(=O)O)=C(S[C@@H]3CN[C@H](C(=O)N(C)C)C3)[C@H](C)[C@H]12 [MEROPENEM]
- Activity [4]: Active
- Activity [5]: <=12%
